Test results: US10717757B2, “Ketolides having antibacterial activity” (BIOPHARMATI SA, priority 2016, dated 2020)
Values after ≈ are worked out from the molar mass of the structure shown. Values joined by “and” are separate entries in the source; they are usually repeats but may differ in a detail not shown here. Identical values can stand only once.

Experiments:
[1] = system: S. pneumoniae AUCC483, macrolide resistant & penicillin sensitive; assay: Minimum inhibitory concentration (MIC), broth microdilution, AUCC483; assay type: cell-based, Streptococcus pneumoniae
Protocol: (§1) Protocols for Determining Minimum Inhibitory Concentration (MIC) of Test Compounds Against Streptococcus Pneumoniae Strains
(§2) The test strains are revived from frozen stock on blood agar plates and incubated at 35±2° C. for 18-20 hours in 5% CO2. Colonies are directly suspended from an overnight grown agar culture in CAMHB/saline and optical density adjusted to 0.5 McFarland turbidity standard (1-2×10^8 cfu/mL). Adjusted cultures are further diluted 1:100 using CAMHB such that after inoculation each well finally contains ˜5×10^5 cfu/mL. For broth dilution testing of Streptococcus species, CAMHB is supplemented with 2.5-5% v/v LHB. Colony counts of inoculum suspension is estimated by ten-fold serial dilutions and plating each dilution on agar plate. After incubation, the plates are observed for growth and microbial counts determined.
(§3) Compounds are weighed and dissolved in water/DMSO/other solvent to yield 1 mg/mL stock solution. Serial two-fold dilutions of the test compounds and reference antibiotics are prepared. 50 μL of the diluted drug solutions are dispensed in wells of microtiter trays (96 well).
(§4) To each of the wells of the microtiter tray, 50 μL of the diluted organism are inoculated to obtain a final inoculum density of ˜5×10^5 cfu/mL. Broth control, compound control and organism control wells are set up.
(§5) MIC testing are done in duplicates
(§6) MIC is defined as the lowest concentration of an antimicrobial agent that prevents visible growth of a microorganism in broth dilution susceptibility test.
(§7) After incubation period, growth of organism in the wells are detected by unaided eye facilitated by a viewing device. The amount of growth in the drug-containing wells are compared with the amount of growth in the organism-control wells.

[2] = system: S. pneumoniae ATCC 49619 (CLSI QC strain); assay: Minimum inhibitory concentration (MIC), broth microdilution, QC strain; assay type: cell-based, Streptococcus pneumoniae; settings: Streptococcus pneumoniae; ATCC49619 QC strain; MIC in duplicates; read-out: MIC Strep. Pneumoniae ATCC49619 QC strain
Protocol: as §1, §2, §3, §4, §5, §6, §7

[3] = system: S. pneumoniae AUCC488, macrolide & penicillin resistant; assay: Minimum inhibitory concentration (MIC), broth microdilution, AUCC488; assay type: cell-based, Streptococcus pneumoniae
Protocol: as §1, §2, §3, §4, §5, §6, §7

[4] = target: T1, CYP3A4 (Homo sapiens, UniProt P08684); settings: background statement; cited from earlier work
T1 sequence (P08684 whole entry): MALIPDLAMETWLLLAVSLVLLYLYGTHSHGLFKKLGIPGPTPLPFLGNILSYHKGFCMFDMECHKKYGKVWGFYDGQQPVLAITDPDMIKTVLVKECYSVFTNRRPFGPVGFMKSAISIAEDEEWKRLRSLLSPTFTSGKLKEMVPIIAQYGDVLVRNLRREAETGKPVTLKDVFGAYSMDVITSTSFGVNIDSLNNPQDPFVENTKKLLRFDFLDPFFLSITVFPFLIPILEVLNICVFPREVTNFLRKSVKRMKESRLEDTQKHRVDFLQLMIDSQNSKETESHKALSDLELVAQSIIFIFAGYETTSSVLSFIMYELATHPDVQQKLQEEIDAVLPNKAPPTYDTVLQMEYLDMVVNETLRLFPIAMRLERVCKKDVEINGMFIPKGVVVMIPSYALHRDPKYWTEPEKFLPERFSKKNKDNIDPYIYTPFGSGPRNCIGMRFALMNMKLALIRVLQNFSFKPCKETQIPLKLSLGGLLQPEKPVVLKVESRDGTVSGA

[5] = system: S. pneumoniae AUCC479, macrolide & penicillin sensitive; assay: Minimum inhibitory concentration (MIC), broth microdilution, AUCC479; assay type: cell-based, Streptococcus pneumoniae
Protocol: as §1, §2, §3, §4, §5, §6, §7

[6] = system: S. pneumoniae AUCC489, macrolide & penicillin resistant; assay: Minimum inhibitory concentration (MIC), broth microdilution, AUCC489; assay type: cell-based, Streptococcus pneumoniae
Protocol: as §1, §2, §3, §4, §5, §6, §7

[7] = target: P-gp (Homo sapiens, UniProt P08183); settings: background statement; cited from earlier work
Chain of P-gp (P08183 whole entry): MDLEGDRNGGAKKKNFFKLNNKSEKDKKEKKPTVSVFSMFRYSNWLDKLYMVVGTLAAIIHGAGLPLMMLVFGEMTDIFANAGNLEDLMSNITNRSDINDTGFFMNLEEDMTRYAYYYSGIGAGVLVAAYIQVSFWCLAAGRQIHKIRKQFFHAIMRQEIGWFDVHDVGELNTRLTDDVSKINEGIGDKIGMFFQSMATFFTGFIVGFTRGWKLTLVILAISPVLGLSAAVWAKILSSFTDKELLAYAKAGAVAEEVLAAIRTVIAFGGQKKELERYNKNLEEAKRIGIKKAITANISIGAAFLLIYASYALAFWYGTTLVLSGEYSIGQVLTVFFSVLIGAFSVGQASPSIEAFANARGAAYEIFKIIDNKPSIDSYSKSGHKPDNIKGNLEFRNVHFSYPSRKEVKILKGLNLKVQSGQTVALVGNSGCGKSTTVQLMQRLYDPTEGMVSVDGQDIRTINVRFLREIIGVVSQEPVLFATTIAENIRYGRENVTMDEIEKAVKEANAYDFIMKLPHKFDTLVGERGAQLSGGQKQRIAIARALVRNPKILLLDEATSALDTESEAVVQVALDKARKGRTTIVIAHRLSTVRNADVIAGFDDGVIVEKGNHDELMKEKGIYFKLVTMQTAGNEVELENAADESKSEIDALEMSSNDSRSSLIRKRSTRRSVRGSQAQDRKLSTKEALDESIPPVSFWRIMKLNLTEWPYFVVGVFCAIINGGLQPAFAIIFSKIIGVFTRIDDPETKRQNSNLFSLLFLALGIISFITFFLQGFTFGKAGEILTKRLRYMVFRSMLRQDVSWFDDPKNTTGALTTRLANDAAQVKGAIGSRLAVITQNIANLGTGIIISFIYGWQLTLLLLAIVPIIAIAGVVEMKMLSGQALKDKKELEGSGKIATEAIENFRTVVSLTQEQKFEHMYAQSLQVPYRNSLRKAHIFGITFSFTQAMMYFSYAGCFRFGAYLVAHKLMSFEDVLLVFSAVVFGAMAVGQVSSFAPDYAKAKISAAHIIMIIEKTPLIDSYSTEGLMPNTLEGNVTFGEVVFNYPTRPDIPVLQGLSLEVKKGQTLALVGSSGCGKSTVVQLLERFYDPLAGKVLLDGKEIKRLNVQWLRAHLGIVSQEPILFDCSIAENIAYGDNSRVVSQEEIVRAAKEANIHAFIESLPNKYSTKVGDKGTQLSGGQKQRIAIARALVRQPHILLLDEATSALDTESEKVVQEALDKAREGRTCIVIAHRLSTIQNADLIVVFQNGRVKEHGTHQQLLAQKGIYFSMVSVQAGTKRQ

[8] = target: T1, CYP3A4; assay: biochemical
Protocol: Cytochrome P4503A4 Inhibition Assay for Determining IC50
The potential of the compound to inhibit CYP 3A4 was tested by the LC-MS/MS based probe substrate method using human liver microsomes. Midazolam or testosterone, which are metabolized to hydroxymidazolam or hydroxytestosterone by CYP 3A4, were the probe substrates used. […] NADPH was added as the cofactor. […] After incubation for ten minutes, the amount of 1-hydroxymidazolam or 6β-hydroxyltestosterone formed was determined by LC-MS/MS method as a measure of enzyme activity. Percent inhibition of enzyme activity was calculated based on the amount of metabolites (1-hydroxymidazolam or 6β-hydroxyltestosterone) formed for each sample relative to the basal control and plotted in a curve versus the compound concentration to obtain the IC50.

MIC Strep. Pneumoniae AUCC 483 penS, macR cMLS [1]: 8 to 15 ng/mL
MIC [2]: 4 to 15 ng/mL (≈ 4.73 to 17.8 nM)
MIC Strep. Pneumoniae AUCC 488 penR, macR M or iMLS [3]: 60 to 250 ng/mL
MIC Strep. Pneumoniae AUCC 479 penS, macS [5]: 4 to 15 ng/mL
MIC Strep. Pneumoniae AUCC 489 penR, macR cMLS [6]: 4 to 8 ng/mL
IC50 [8]: 400 nM and 1490 nM
SMILES: CC[C@H]1OC(=O)[C@@](C)(F)C(=O)[C@H](C)[C@@H](O[C@@H]2O[C@H](C)C[C@H](N(C)C)[C@H]2O)[C@](C)(OC)C[C@@H](C)C(=O)[C@H](C)[C@H]2N(CCCCn3cc(-c4cccc(N)c4)nn3)C(=O)O[C@]12C [solithromycin, reference compound]
inhibition of CYP3A4 [4]: strong inhibitor
inhibition of P-gp [7]: moderate inhibitor
